According to patent publication US6288101A, “Imidazoles with serotonin receptor binding activity” (Virginia Commonwealth University, priority 1999, dated 2001):

Target: T1, 5-HT1D -like receptor (Oryctolagus cuniculus, UniProt P49144)
T1 construct: Ring segments of the vein (4-5 mm in length) were cut and the endothelium gently removed; from tissue; host or cells: saphenous vein rings, endothelium removed, male New Zealand White rabbit
Assay: 5-HT1D-like receptor agonist activity: contraction of the rabbit isolated saphenous vein
Design: species or system rabbit (New Zealand White)
Conditions: rabbit isolated saphenous vein rings, endothelium removed, 37° C., pH 7.4; prazosin, idazoxan and indomethacin (1 μM each) present; read-out: EC50 (concentration of the compound which causes 50% of the maximum contraction effected by it)
Protocol: The saphenous veins from both the left and right side were cleaned of fat and connective tissue and placed in Krebs solution (118 mM NaCl, 11 mM glucose, 25 mM NaHCO3, 4.7 mM KCl, 2.5 mM CaCl2.2H2 O, 1.2 mM KH2 PO4, and 1.2 mM MgSO4.7H2 O. Ring segments of the vein (4-5 mm in length) were cut and the endothelium gently removed. The segments were mounted in 10 mL baths containing Krebs buffer and were constantly aerated with 95% oxygen/5% carbon dioxide and maintained at 37° C. and pH 7.4 in order to record the isometric tension. A resting tension of 2.5 g was applied and the tissues allowed to equilibrate for 90 minutes, with washing every 15-20 minutes. After the equilibrium period, the rings were depolarized by the addition of two aliquots of KCl (80 mM final concentration) separated by a 20 minute washing period. The tissues were then exposed to prazosin, idazoxan and indomethacin (all 1 μM final concentration) for 30 minutes in order to exclude the actions of α1 - and α2 -adrenergic receptors and prostaglandin receptors respectively. […] Responses were calculated as a percentage of the maximal contraction evoked by 80 mM KCl. Only one compound was tested per preparation.
EC50 represents the concentration of the compound which causes 50% of the maximum contraction effected by it.

T1 sequence (P49144 whole entry): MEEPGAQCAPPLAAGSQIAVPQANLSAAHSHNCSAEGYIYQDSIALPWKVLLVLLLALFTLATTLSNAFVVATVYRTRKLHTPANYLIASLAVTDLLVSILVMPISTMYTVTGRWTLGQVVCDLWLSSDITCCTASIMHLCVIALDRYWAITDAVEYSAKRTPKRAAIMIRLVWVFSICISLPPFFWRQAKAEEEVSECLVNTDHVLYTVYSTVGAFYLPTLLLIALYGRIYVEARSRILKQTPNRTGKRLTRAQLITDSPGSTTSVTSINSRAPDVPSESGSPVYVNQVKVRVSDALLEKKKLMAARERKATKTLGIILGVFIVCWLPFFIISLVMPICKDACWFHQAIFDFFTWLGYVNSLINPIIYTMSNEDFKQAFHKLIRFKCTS

Row | SMILES | EC50 [µM]
1 | Cc1cc(C(C)(C)C)cc(C)c1Cc1ncc[nH]1 | 0.13
2 | Cc1cc(Br)cc(C)c1Cc1ncc[nH]1 | 9.3
